Test: Metabolic stability in minipig intestinal fluid, quantification of released licofelone by HPLC/UV
Format: in vitro ADME, Gottingen SPF minipig
Conditions: incubation in diluted minipig intestinal fluid
Protocol: a) Preparation and Storage of Minipig Intestinal Fluid (IF)
Intestinal tissue/fluid and enterocyte samples were taken from a 10 month old, female Gottingen SPF minipig. The body weight was 21 kg. The minipig was fasted for approximately 28 hours before sampling of intestinal fluid/tissues and enterocytes. On the day of sampling, the minipig was weighed and anaesthetised. The animal was killed by exsanguination before sampling of intestinal fluid. An intestinal segment was ligated at both ends before removal. The isolated tissue was placed in isotonic saline and opened by a longitudinal cut for sampling of intestinal fluid.
The intestinal tissue from each segment was transferred into a Centrifuge Tube, immersed in 10 ml 50 mM phosphate buffer, pH 6.8 and frozen at −70° C.
b) Incubation Experiments with Minipig Intestinal Fluid (without FaSSIF) […]
c) Quantification of Licofelone by HPLC/UV
A set of six reference solutions (solvent: 1 vol IF and 4 vol 2% bovine serum albumin in FaSSIF pH 6.5) with licofelone concentrations between 38.0 and 0.19 μg/ml and the solvent without licofelone were analyzed in duplicate. The obtained concentration/peak area data pairs were subjected to linear regression analysis and the resulting calibration curve (r^2=0.9999) was used for quantification of licofelone in incubation experiments.

COC(=O)/C=C/C(=O)OCCOCCOCCOCCOC(=O)Cc1c(-c2ccc(Cl)cc2)c(-c2ccccc2)c2n1CC(C)(C)C2 [Example 8, (E)-But-2-enedioic acid 2-{2-[2-(2-{2-[2-(4-chloro-phenyl)-6,6-dimethyl-1-phenyl-6,7-dihydro-5H-pyrrolizin-3-yl]-acetoxy}-ethoxy)-ethoxy]-ethoxy}-ethyl ester methyl ester]
Cleavage of the ester bond, release of licofelone and monomethylfumarate: unexpected smooth cleavage of the ester bond

— US20180305292A1, “DERIVATIVES OF NONSTEROIDAL ANTI-INFLAMMATORY DRUGS” (priority 2015, published 2018)
